Read-outs that look alike come from different tables or passages of the source.
Legend:
[1] = target: T1, CB1 receptor (Rattus norvegicus, UniProt P20272); assay: Radioligand displacement in whole rat brain (CB1) membrane preparations; format: binding
T1 construct: Whole rat brains or dissected regions from live CD rats; tissue Charles River or Pel-Freez Biologicals; host or cells: whole rat brain (CD rats), P2 membrane
From the text: CB1 receptor affinity in rat brain.
Methods—membrane preparation from brain. The methods for tissue preparation are essentially those described by Devane et al. (1988) as modified by Compton et al. (1993) and later by Thomas et al. (1998). Whole rat brains or dissected regions from live CD rats from Charles River or Pel-Freez Biologicals (Rogers, Ark.), or human brain sections obtained from the National Disease Research Institute, were allowed to thaw to room temperature on ice. Both whole brain and dissected brain regions were used because different brain regions may express different cannabinoid receptor subtypes (Skaper et al., 1996; Thomas et al., 1998). The tissue was homogenized with a Kontes Potter-Elvehjem glass-Teflon grinding system (Fisher Scientific, Springfield, N.J.) in buffer 1 (320 mM sucrose, 2 mM EDTA, 5 mM MgCl2. The homogenate was centrifuged at 1600 g for 10 min. The supernatant was saved and combined with the two subsequent supernatants obtained from washing and 1600 g centrifugation of the P1 pellet. The combined supernatant fractions were then centrifuged at 39,000 g for 15 min. The P2 pellet was resuspended in 50 mL of buffer 2 (50 mM Tris.HCl, 2 mM EDTA, 5 mM MgCl2, pH 7.0), incubated at 37° C. for 10 min, then centrifuged at 23,000 g for 10 min. The P2 membrane was resuspended in 50 mL of buffer 2, incubated at 30° C. for 40 min, then centrifuged at 11,000 g for 15 min. The final wash-treated P2 pellet was resuspended in assay buffer 3 (50 mM Tris.HCl, 1 mM EDTA, 3 MM MgCl2, pH 7.4). Protein concentrations were determined by the method of Bradford (1976) using Coomassie brilliant blue dye (Bio-Rad, Richmond, Calif.) and BSA standards (bovine serum albumin, fatty acid free, Sigma Chemical Co., St. Louis, Mo.) prepared in assay buffer 3. The membrane preparation was divided into aliquots and stored at −80° C. For use in the binding assay, an aliquot of frozen membranes was thawed on ice and diluted to a concentration of ca. 0.2 mg/mL in assay buffer.
Methods—binding assay in brain membrane preparation. The methods for ligand binding are essentially those described by Devane et al. (1988) with the exception that we used a filtration assay. […] All cannabinoid analogs were prepared by suspension in buffer A from a 1-5 mg/mL ethanolic stock. Following incubation at 30° C. for 1 h, binding was terminated by vacuum filtration through pretreated filters in a 96-well sampling manifold (Millipore, Bedford, Mass.). Reaction vessels were washed at least 3 times with 1 mL of ice cold buffer B (50 mM Tris.HCl, 1 mg/mL BSA). The filter plates were air-dried and sealed on the bottom. Liquid scintillant was added to the wells and the top sealed. After incubating the plates in cocktail for at least 2 h, the radioactivity present was determined by liquid scintillation spectrometry. Assays were done in duplicate, and results represent the combined data of three to six independent experiments. All assays were performed in polypropylene test tubes. The GF/C glassfiber filter plates (Packard, Meriden, Conn.) were pretreated in buffer B for at least 1 h.
(§1) Data analysis. Saturation and displacement data were analyzed by unweighted nonlinear regression of receptor binding data. For displacement studies, curve-fitting and IC50 calculation were done with GraphPad Prism (GraphPad Software, Inc., San Diego, Calif.), which fits the data to one and two-site models and compares the two fits statistically. A similar approach was used for the analysis of isotherm data for calculation of Kd's. A two-site fit was accepted only if it was statistically significant (p<0.05) and the following results were not observed:
(§2) IC50 values were then converted to Ki values by reported methods (Cheng and Prusoff, 1973). The statistical evaluation of curve-fitting data allowed for a non-arbitrary conclusion based on the displacement data.

[2] = target: T2, human CB1 receptor (Homo sapiens, UniProt P21554); assay: Radioligand displacement in human CB1 receptor-transfected cells (HEK-293); format: binding
T2 construct: expressed in transfected cells; host or cells: HEK-293
Method: Human CB1 receptor affinity. The alkyl amide analogs of the present invention were examined using transfected cell lines expressing the human CB1 receptor (Table 3).
(§3) Methods—binding assay in transfected cell lines. The methods used for performing binding assays in transfected cells expressing human CB1 or CB2 receptors are those used above. The CB1 receptor involved a HEK-293 expression system whereas the CB2 receptor was expressed in CHO-K1 cells. […] The incubations and separations were then performed as described above for rat brain membrane preparations.
as §1, §2

[3] = target: T3, human CB2 receptor (Homo sapiens, UniProt P34972); assay: Displacement of 3H-CP55,940 in human CB2 receptor-transfected cells (CHO-K1); format: binding; conditions: radioligand 3H-CP55940, Tables 6 and 7
T3 construct: expressed in transfected cells; host or cells: CHO-K1
Method: Human CB2 receptor affinity. The relative selectivity of the analogs for CB1 versus CB2 receptors varied modestly regardless of the structural modifications examined to date.
as §3, §1, §2

[4] = target: T4, G-protein-linked cannabinoid receptors (Rattus norvegicus, UniProt P20272); assay: GTP-γ-[35S] binding in whole rat brain; format: biochemical; conditions: for Emax: read-out: Emax, GTP-γ-[35S] in Whole Rat Brain
T4 construct: tissue Charles River or Pel-Freez Biologicals; host or cells: whole rat brain crude membrane homogenate
From the text: Cannabinoid receptor-mediated alteration in GTP-γ-[^35S] binding.
Introduction. The purpose of this assay was to characterize the functional activity of lead compounds identified by the radioligand competition binding assays described above. Data from the GTP-γ-[^35S] binding assay was used to determine if a compound was an agonist, antagonist or inverse agonist at G-protein-linked cannabinoid receptors. Agonist binding to a G-protein-linked receptor results in an increased affinity of the G-protein α-subunit for GTP relative to GDP. Eventually, an active αGTP complex forms to complete the stimulus-effector coupling. The α-subunit has intrinsic GTPase activity which generates a free α-subunit which can recombine with the β- and γ-subunits readying the G-protein for another signal transduction cycle. In the current assay, GTP-γ-[^35S] cannot be hydrolyzed by the α-subunit. Thus, the amount of bound GTP-γ-[^35S] is a marker for G-protein activation. In this assay, an agonist increases basal GTP-γ-[^35S] binding, an inverse agonist decreases basal binding and basal binding would be unaffected by an antagonist.
Experimental Design. The specific binding of GTP-γ-[^35S], in the absence of test compound, was termed “basal” activity. Test compounds were characterized as agonist, antagonist, or inverse agonist based on their effect on basal activity. […] The concentrations spanned two orders of magnitude because affinity may not be related to efficacy. […] Effects of the test compounds are reported as the percent change from basal. More thorough dose-response analysis may be run to determine, for example, if a compound is a full or partial agonist.
Methods. […] In a final volume of 0.5 mL, each assay tube contained: 0.02 mg crude membrane homogenate (0.1 mL), 200 μM GDP (0.05 mL; to reduce basal G-protein activity), 0.1 nM GTP-γ-[^35S] (0.05 mL) and several concentrations of test compound (0.05 mL) or an equivalent volume of vehicle (used for determination of total binding). Nonspecific binding was determined in the presence of 100 μM unlabeled GTP-γ-S (0.05 mL). Duplicate samples were incubated for 1 h at 30° C. Since this assay is amenable for use with high throughput screening methods, the binding assays were run using a 96-well plate format. Specific binding was calculated as total binding-nonspecific binding.

[5] = Ki, displacement of 3H-CP55940, whole rat brain membranes, radioligand 3H-CP55940, Tables 1 and 2
[6] = Ki, displacement of 3H-SR141716A, whole rat brain membranes, radioligand 3H-SR141716A, Tables 1 and 2
[7] = Ki, displacement of 3H-WIN55212-2, whole rat brain membranes, radioligand 3H-WIN55212-2, Tables 1 and 2
[8] = whole rat brain membranes, radioligand 3H-CP55940, Tables 1 and 2
[9] = whole rat brain membranes, radioligand 3H-SR141716A, Tables 1 and 2
[10] = whole rat brain membranes, radioligand 3H-WIN55212-2, Tables 1 and 2
[11] = Ki, displacement of 3H-CP55940, human CB2 transfected cells
[12] = EC50, GTP-γ-[35S] in Whole Rat Brain, whole rat brain membranes, inverse agonist/antagonist activity
[13] = read-out: Ki, displacement of 3H-CP55940, whole rat brain membranes, radioligand 3H-CP55940, Tables 1 and 2
[14] = read-out: Ki, displacement of 3H-CP55940, human CB2 transfected cells
[15] = whole rat brain membranes, effects reported as percent change from basal
[16] = whole rat brain membranes, inverse agonist/antagonist activity, read-out: EC50, GTP-γ-[35S] in Whole Rat Brain
[17] = read-out: Ki, displacement of 3H-SR141716A, whole rat brain membranes, radioligand 3H-SR141716A, Tables 1 and 2

T1 sequence (P20272 whole entry): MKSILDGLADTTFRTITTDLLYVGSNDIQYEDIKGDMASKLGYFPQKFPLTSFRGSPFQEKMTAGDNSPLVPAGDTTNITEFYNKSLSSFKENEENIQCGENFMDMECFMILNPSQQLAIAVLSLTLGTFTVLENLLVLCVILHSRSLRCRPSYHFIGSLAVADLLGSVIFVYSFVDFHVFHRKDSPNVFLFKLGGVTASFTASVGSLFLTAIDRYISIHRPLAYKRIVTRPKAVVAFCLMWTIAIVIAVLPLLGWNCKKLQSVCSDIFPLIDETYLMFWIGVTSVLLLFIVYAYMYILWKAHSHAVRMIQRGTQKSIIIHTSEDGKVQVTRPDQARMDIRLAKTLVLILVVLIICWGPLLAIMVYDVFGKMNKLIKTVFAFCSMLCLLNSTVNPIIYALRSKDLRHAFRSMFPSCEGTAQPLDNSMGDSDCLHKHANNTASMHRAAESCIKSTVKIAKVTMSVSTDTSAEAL
T4 sequence (P20272 whole entry): as above
T3 sequence (P34972 whole entry): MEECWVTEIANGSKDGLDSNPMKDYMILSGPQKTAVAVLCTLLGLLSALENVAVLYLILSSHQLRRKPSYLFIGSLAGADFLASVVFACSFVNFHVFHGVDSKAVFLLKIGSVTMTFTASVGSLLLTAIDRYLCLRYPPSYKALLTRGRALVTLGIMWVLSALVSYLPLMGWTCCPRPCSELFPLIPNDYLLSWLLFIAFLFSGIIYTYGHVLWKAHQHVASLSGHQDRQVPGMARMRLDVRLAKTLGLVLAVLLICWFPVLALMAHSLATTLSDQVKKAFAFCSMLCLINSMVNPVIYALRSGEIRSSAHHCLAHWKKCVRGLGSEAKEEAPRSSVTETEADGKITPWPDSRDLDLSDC
T2 sequence (P21554 whole entry): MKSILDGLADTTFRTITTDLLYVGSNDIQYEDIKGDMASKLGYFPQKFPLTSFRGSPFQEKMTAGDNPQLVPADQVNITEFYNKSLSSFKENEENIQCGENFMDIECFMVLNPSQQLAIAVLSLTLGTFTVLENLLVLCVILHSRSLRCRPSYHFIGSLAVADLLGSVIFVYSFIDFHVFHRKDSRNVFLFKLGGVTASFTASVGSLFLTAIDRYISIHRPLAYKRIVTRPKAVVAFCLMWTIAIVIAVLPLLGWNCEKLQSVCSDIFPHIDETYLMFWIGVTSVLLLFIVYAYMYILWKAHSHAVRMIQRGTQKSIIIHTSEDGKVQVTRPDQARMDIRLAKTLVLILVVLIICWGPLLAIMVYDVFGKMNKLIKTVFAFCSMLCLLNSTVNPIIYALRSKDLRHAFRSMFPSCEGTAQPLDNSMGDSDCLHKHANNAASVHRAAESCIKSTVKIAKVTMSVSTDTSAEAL

| Compound | Max. Disp. %, 3H-CP55940 [1, 8] [%] | Max. Disp. %, 3H-SR141716A [1, 9] [%] | Max. Disp. %, 3H-CP55940 ([3]; human CB2 transfected cells) [%] | Ki [1, 13] [nM] | Ki [3, 14] [µM] | EC50 [4, 16] [µM] | Emax, GTP-γ-[35S] in Whole Rat Brain [4, 15] | also measured |
| --- | --- | --- | --- | --- | --- | --- | --- | --- |
| CCCCCCCCCNC(=O)c1nn(-c2ccc(Cl)cc2Cl)c(-c2ccc(Cl)cc2)c1C [MF10110-10-21] | 79.5 | 85.8 | 53.8 | – | – | – | – | Ki [1, 5]: 333 nM; Ki [1, 6]: 88.2 nM; Ki [1, 7]: 68.2 nM; Max. Disp. %, 3H-WIN55212-2 [1, 10]: 68.6%; Max. Disp. %, 3H-CP55940 [2]: 68.8%; Max. Disp. %, 3H-SR141716A [2]: 86.9%; Max. Disp. %, 3H-WIN55212-2 [2]: 28.3%; Ki ([2]; displacement of 3H-CP55940): 307 nM; Ki ([2]; displacement of 3H-SR141716A): 56.5 nM; Ki ([2]; displacement of 3H-WIN55212-2): 3550 nM; Ki [3, 11]: 22.9 µM; EC50 [4, 12]: 294 µM; Emax [4]: -20.1% |
| Cc1c(C(=O)NCCCCO)nn(-c2ccc(Cl)cc2Cl)c1-c1ccc(Cl)cc1 [MF9725-95-31] | 88.7 | 97.6 | 54.3 | 154 | 5.72 | 304 | – | Emax [4, 15]: -79.5% |
| Cc1c(C(=O)NC(C)CO)nn(-c2ccc(Cl)cc2Cl)c1-c1ccc(Cl)cc1 (single isomer, unassigned) [MF9725-106-39] | 89.7 | 100 | 52.1 | 117 | – | 292 | −83.0 | Ki [1, 6]: 99.8 nM; Ki [3, 11]: 1.77 µM |
| SR144528 [reference compound] | 84.7 | 68.6 | 88.4 | – | – | – | −27.7 | Max. Disp. %, 3H-CP55940 ([1]; whole rat brain, 3H-CP55940, Table 4, parallel synthesis analogs, n = 1): 84.7%; Max. Disp. %, 3H-SR141716A ([1]; whole rat brain, 3H-SR141716A, Table 4, parallel synthesis analogs, n = 1): 68.6% |
| Cc1c(C(=O)NCCCO)nn(-c2ccc(Cl)cc2Cl)c1-c1ccc(Cl)cc1 [MF9725-94-31] | 86.6 | 100 | 43.1 | 160 | 1.25 | 241 | – | Ki [1, 17]: 156 nM; Emax [4, 15]: -83.3% |
| Cc1c(C(=O)NC(C)CO)nn(-c2ccc(Cl)cc2Cl)c1-c1ccc(Cl)cc1 (single isomer, unassigned) [MF9725-105-38] | – | 96.8 | 47.5 | – | – | 294 | −83.8 | Ki [1, 5]: 117 nM; Ki [1, 6]: 123 nM; Ki [3, 11]: 5.9 µM |
| Cc1c(C(=O)NN2CCCCC2)nn(C2CCCCC2)c1-c1ccc(Cl)cc1 [MF9879-117-24] | – | – | – | – | – | 108 | −71.7 | – |
| Cc1c(C(=O)NN)nn(-c2ccc(Cl)cc2Cl)c1-c1ccc(Cl)cc1 [MF9879-34-8] | 68.4 | 85.9 | 80.8 | 374 | 12.1 | – | – | Ki [1, 17]: 602 nM; Emax [4, 15]: -71.7%; EC50 ([4]; whole rat brain membranes, value above highest concentration tested (footnote), read-out: EC50, GTP-γ-[35S] in Whole Rat Brain, value is above highest concentration on displacement curve): ≥ 419 µM |
| CCCCCCCn1nc(C(=O)NN2CCCCC2)c(C)c1-c1ccc(Cl)cc1 [MF10278-20-15] | – | – | – | – | – | 156 | −85.7 | – |
| CCCCCNC(=O)c1nn(-c2ccc(Cl)cc2Cl)c(-c2ccc(Cl)cc2)c1C [MF9725-67-17] | 91.4 | 100 | 75.9 | 11.4 | 1.11 | – | – | Ki [1, 7]: 12.6 nM; Ki [1, 17]: 6.83 nM; Max. Disp. %, 3H-WIN55212-2 [1, 10]: 94.4%; Max. Disp. %, 3H-CP55940 [2]: 87.1%; Max. Disp. %, 3H-SR141716A [2]: 89.9%; Max. Disp. %, 3H-WIN55212-2 [2]: 89.9%; Ki ([2]; displacement of 3H-CP55940): 14.6 nM; Ki ([2]; displacement of 3H-SR141716A): 6.35 nM; Ki ([2]; displacement of 3H-WIN55212-2): 18.7 nM; EC50 [4, 12]: 5.27 µM; Emax [4]: -7.4% |
| Cc1c(C(=O)NN2CCCCC2)nn(-c2ccccc2)c1-c1ccc(Cl)cc1 [MF9879-64-23] | – | – | – | – | – | 361 | −47.2 | – |
| CCCCCCn1nc(C(=O)NN2CCCCC2)c(C)c1-c1ccc(Cl)cc1 [MF10278-22-16] | – | – | – | – | – | 74.7 | −71.5 | – |

Reference: patent US6825209B2, “Compounds having unique CB1 receptor binding selectivity and methods for their production and use” (Research Triangle Institute, priority 2002, dated 2004)
